Data reported in patent publication US8742158B2, “Protease inhibitors” (TaiMed Biologics, Inc., priority 2006, dated 2014).
pEC50, pIC50, pKi: −log10 of the molar value. Where “and” joins values, the source holds several entries; their conditions need not be identical. Identical values can stand only once. Like-named read-outs stand apart in the source and are kept apart here.

Tests used:
[1] = molecular target: HIV-1 Protease (Human immunodeficiency virus type 1 group M subtype B (isolate HXB2) (HIV-1), UniProt P04585); assay: Enzymatic (FRET fluorometric) assay for determining the inhibition constant (Ki) of compounds targeting the HIV protease; assay type: biochemical; settings: for pIC50: read-out: IC50 ENZYME HIV-1 Protease
Description: Enzymatic Assay for Determining the Inhibition Constant (Ki) of Synthetic Compounds Targeting the HIV Protease
This is a fluorometric assay based on the cleavage by protease of a substrate carrying a donor group (EDANS) and an acceptor group (DABCYL) on each side of the cleavage site, interacting together through fluorescence resonance energy transfer (FRET) as described by Matayoshi et al. (Science 247:[…], 1990).
After calculation of Vo and Vi, the inhibition constant (Ki) of the compound is determined using the equation of Henderson:
where Vo=the enzyme's initial velocity
Vi=the enzyme velocity in the presence of the inhibitory compound,
[I]=inhibitor concentration, [S]=substrate concentration,
Km=Michaelis-Menten constant and Kiapp=apparent Ki
Graphs are traced and the Ki determined using GraphPad Prism software v. 3.0.

[2] = system: HIV-1 viral strain NL4-3; assay: Anti-viral assay in vitro (MTT, infected MT-4 cells, six days); assay type: cell-based; settings: Human immunodeficiency virus 1, NL43, MT4, 144 h, read-out: ANTI-HIV-EC50 VIRAL STRAIN NL4-3
Procedure: Anti-Viral and Cytotoxicity Assays In Vitro
• To evaluate the EC50 of our compounds, various drug concentrations are incubated with the infected cell for six days and then the metabolic activity of the cells is monitored by the MTT assay. (See A. J. Japour et al., Antimicrobial Agents and Chemotherapy, 37, 1095-1101, 1993 and R. Pauwels et al. Journal of Virological Methods, 20, 309-321, 1988) • We use the laboratory viral strain NL4.3 as wild type virus and the cell line used is MT-4 which is a T-cell line highly sensitive to HIV-1. We also use some WT clinical strains. To address the resistance issue we assay the inhibitors with NL4.3 mutants which are designed to be resistant to specific commercially available inhibitors. • The same MTT assay is used to evaluate the CCIC50 (cell culture of IC50) of our compounds except that the virus is omitted.

[3] = KIGRAPHIC ENZYME HIV-1 Protease, Ki determined graphically, read-out: […] ENZYME HIV-1 Protease
[4] = calculated Ki, read-out: KI-CALC ENZYME HIV-1 Protease

Compound | pKi [1, 3] | pKi [1, 4] | pIC50 [1] | pEC50 [2]
Cc1cccnc1C(=O)N[C@@H](Cc1ccccc1Br)C(=O)NCCCC[C@@H](CO)N(CC(C)C)S(=O)(=O)c1ccc(N)cc1 [EX 36] | 9.57 | > 8.42 | 9.30 | 6.69
CC(C)CN([C@H](CO)CCCCNC(=O)[C@@H](NS(=O)(=O)c1cccs1)C(c1ccccc1)c1ccccc1)S(=O)(=O)c1ccc(N)cc1 [EX 57] | 9.27 | > 8.42 | 9.22 | 7.19
COC(=O)N[C@H](C(=O)NCCCC[C@H](C(N)=O)N(CC(C)C)S(=O)(=O)c1ccc(N)cc1)C(c1ccccc1)c1ccccc1 [EX. 7] | 10.31 and 10.38 |  | 9.19 and 9.29 | 7.52
CC(=O)N[C@H](C(=O)NCCCCC(C(N)=O)N(CC(C)C)S(=O)(=O)c1ccc(N)cc1)C(c1ccccc1)c1ccccc1 (some centres unmarked) [EX. 8] |  |  |  | 6.62
CC(C)CN([C@H](CO)CCCCNC(=O)[C@H](Cc1ccccc1Br)NC(=O)OCc1ccncc1)S(=O)(=O)c1ccc(N)cc1 [EX 38] | 9.57 |  | 9.04 | 6.61
Cc1ccccc1C[C@H](NC(=O)c1cccnc1)C(=O)NCCCC[C@@H](CO)N(CC(C)C)S(=O)(=O)c1ccc(N)cc1 [EX 20] |  | > 8.42 | 8.85 | 6.83
COC(=O)N[C@H](C(=O)NCCCC[C@H](CO)N(CC(C)C)S(=O)(=O)c1cccc2cccnc12)C(c1ccccc1)c1ccccc1 [EX 27] |  | > 8.42 | 8.59 | 6.43
CC(C)CN([C@H](CO)CCCCNC(=O)[C@H](Cc1ccccc1Cl)NC(=O)c1ccncc1)S(=O)(=O)c1ccc(N)cc1 [EX 29] |  | > 8.42 | 8.42 | 6.84
CC(C)CN([C@H](CO)CCCCNC(=O)[C@H](CC1=C(Br)CCC=C1)NC(=O)N1CCOCC1)S(=O)(=O)c1ccc2c(c1)OCCO2 [EX 31] |  | > 8.42 | 8.44 | 6.01
CC(C)CN([C@H](CO)CCCCNC(=O)[C@@H](Cc1ccccc1Br)NC(=O)c1ccc2c(c1)OCO2)S(=O)(=O)c1ccc(N)cc1 [EX. 41] | 10.30 |  | 9.47 | 7.37
CC(=O)N[C@H](C(=O)NCCCC[C@@H](C(N)=O)N(CC(C)C)S(=O)(=O)c1ccc(N)cc1)C(c1ccccc1)c1ccccc1 [EX. 8] |  | > 8.42 | 8.97 | 
COC(=O)N[C@@H](Cc1ccccc1Br)C(=O)NCCCC[C@@H](COP(=O)(O)O)N(CC(C)C)S(=O)(=O)c1ccc(N)cc1 [EX. 1, (1S,5S)-[1-{5-[(4-amino-benzenesulfonyl)-isobutyl-amino]-6-phosphonooxy-hexylcarbamoyl}-2-(2-bromo-phenyl)-ethyl]-carbamic acid methyl ester] |  | < 6.52 |  | 
COC(=O)N[C@@H](Cc1ccccc1F)C(=O)NCCCC[C@H](CO)N(CC(C)C)S(=O)(=O)c1ccc2c(c1)OCCN2C [EX 14] |  | 7.12 |  | 5.74
Cc1ccc(C(=O)N[C@@H](Cc2ccccc2C)C(=O)NCCCC[C@@H](CO)N(CC(C)C)S(=O)(=O)c2ccc(N)cc2)cn1 [EX 21] |  | > 8.42 | 8.89 | 6.70
Cc1ccc(C(=O)N[C@@H](CC2CCCCC2)C(=O)NCCCC[C@@H](CO)N(CC(C)C)S(=O)(=O)c2ccc(N)cc2)cn1 [EX 26] |  | > 8.42 | 8.48 | < 5.30
COC(=O)N[C@@H](CC1CCCCC1)C(=O)NCCCC[C@@H](CO)N(CC(C)C)S(=O)(=O)c1ccc(N)cc1 [EX 24] |  | 8.28 | 8.28 | < 5.30
Cc1ncccc1C(=O)N[C@@H](Cc1ccccc1Cl)C(=O)NCCCC[C@@H](CO)N(CC(C)C)S(=O)(=O)c1ccc(N)cc1 [EX 30] |  | > 8.42 | 8.67 | 6.37
COC(=O)N[C@H](C(=O)NCCCC[C@@H](CO)N(Cc1cccnc1)S(=O)(=O)c1ccc(N)cc1)C(c1ccccc1)c1ccccc1 [EX. 33] |  | > 8.42 | 9.00 | 6.71
COC(=O)N[C@H](C(=O)NCCCC[C@H](CO)N(CC(C)C)S(=O)(=O)c1ccc2c(c1)N(C)CCO2)C(c1ccccc1)c1ccccc1 [EX 35] |  | > 8.42 | 8.52 | < 4.30

Compound | pKi [1, 3] | pKi [1, 4] | pIC50 [1] | pEC50 [2]
COC(=O)N[C@@H](Cc1ccccc1Cl)C(=O)NCCCC[C@@H](COP(=O)(O)O)N(CC(C)C)S(=O)(=O)c1ccc(N)cc1 [EX 5, (1S,5S) [1-{5-[(4-amino-benzenesulfonyl)-isobutyl-amino]-6-phosphonooxy-hexylcarbamoyl}-2-(2-chloro-phenyl)-ethyl]-carbamic acid methyl ester] |  | 7.04 |  | 
CC(C)CN([C@H](CO)CCCCNC(=O)[C@H](Cc1ccccc1Br)NC(=O)N1CCOCC1)S(=O)(=O)c1ccc2c(c1)CCO2 [EX 17] | 9.00 and 8.99 | > 8.42 | 9.22 | 6.18
COC(=O)N[C@@H](Cc1ccccc1F)C(=O)NCCCC[C@@H](COP(=O)(O)O)N(CC(C)C)S(=O)(=O)c1ccc(N)cc1 [EX 4, (1S,5S)-[1-{5-[(4-amino-benzenesulfonyl)-isobutyl-amino]-6-phosphonooxy-hexylcarbamoyl}-2-(2-fluoro-phenyl)-ethyl]-carbamic acid methyl ester] |  | < 6.52 |  | 
Cc1ccccc1C[C@H](NC(=O)c1ccncc1)C(=O)NCCCC[C@@H](CO)N(CC(C)C)S(=O)(=O)c1ccc(N)cc1 [EX 22] |  | > 8.42 | 8.87 | 6.80
CC(C)CN([C@H](CO)CCCCNC(=O)[C@H](Cc1ccc2ccccc2c1)NS(=O)(=O)c1cn(C)cn1)S(=O)(=O)c1ccc(N)cc1 [EX 54] |  | 7.94 |  | 
CC(C)CN([C@H](CO)CCCCNC(=O)[C@H](CC1CCCCC1)NC(=O)c1cccnc1)S(=O)(=O)c1ccc(N)cc1 [EX 25] |  | > 8.42 | 8.54 | < 5.30
CC(C)CN([C@H](CO)CCCCNC(=O)[C@@H](NC(=O)c1cccc(O)n1)C(c1ccccc1)c1ccccc1)S(=O)(=O)c1ccc2c(c1)OCO2 [EX 28] | 9.33 |  |  | 
CC(C)CN([C@H](CO)CCCCNC(=O)[C@H](Cc1ccc2ccccc2c1)NCc1ccccn1)S(=O)(=O)c1ccc(N)cc1 [EX 56] |  |  | 8.23 | < 4.30
Cc1ncccc1C(=O)N[C@@H](Cc1ccccc1Br)C(=O)NCCCC[C@@H](COP(=O)(O)O)N(CC(C)C)S(=O)(=O)c1ccc(N)cc1 [EX. 2, (2S,2S) phosphoric acid mono-(2-[(4-aminobenzenesulfonyl)-isobutyl-amino]-6-{3-(2-bromo-phenyl)-2-[(2-methyl-pyridine-3-carbonyl)-amino]-propionylamino}-hexyl)ester] |  | < 6.52 |  | 
CC(C)CN([C@@H](CCCCNC(=O)[C@H](Cc1ccccc1Br)NC(=O)c1ccncc1)COP(=O)(O)O)S(=O)(=O)c1ccc(N)cc1 [EX 3, (2S,2S) phosphoric acid mono-(2-[(4-aminobenzenesulfonyl)-isobutyl-amino]-6-{3-(2-bromo-phenyl)-2-[(pyridine-4-carbonyl)-amino]-propionylamino}-hexyl)ester] |  | < 6.52 |  | 
Cc1ccc(C(=O)N[C@@H](Cc2ccccc2Br)C(=O)NCCCC[C@@H](CO)N(CC(C)C)S(=O)(=O)c2ccc(N)cc2)cn1 [EX. 40] | 9.66 | > 8.42 | 9.25 | 7.26
Cc1nn(C)c(Cl)c1S(=O)(=O)N[C@@H](Cc1ccc2ccccc2c1)C(=O)NCCCC[C@@H](CO)N(CC(C)C)S(=O)(=O)c1ccc(N)cc1 [EX 51] |  | 7.58 |  | 
CC(C)CN([C@H](CO)CCCCNC(=O)[C@H](Cc1ccccc1Br)NC(=O)c1cnccn1)S(=O)(=O)c1ccc(N)cc1 [EX. 44] | 9.50 |  | 9.33 | 7.22
CC(C)CN([C@H](CO)CCCCNC(=O)[C@@H](NC(=O)NCc1ccncc1)C(c1ccccc1)c1ccccc1)S(=O)(=O)c1ccc(N)cc1 [EX 62] | 9.35 | > 8.42 | 9.29 | 6.77
COC(=O)N[C@@H](Cc1ccc(Br)cc1)C(=O)NCCCC[C@@H](COP(=O)(O)O)N(CC(C)C)S(=O)(=O)c1ccc(N)cc1 [EX 6, (1S,5S) [1-{5-[(4-amino-benzenesulfonyl)-isobutyl-amino]-6-phosphonooxy-hexylcarbamoyl}-2-(4-bromo-phenyl)-ethyl]-carbamic acid methyl ester] |  | < 6.52 |  | 
Cc1ccccc1C[C@H](NC(=O)c1cccc(C)c1O)C(=O)NCCCC[C@@H](CO)N(CC(C)C)S(=O)(=O)c1ccc(N)cc1 [EX 23] |  | > 8.42 | 8.38 | < 4.30
Cc1ccc(C(=O)N[C@@H](Cc2ccccc2Br)C(=O)NCCCC[C@@H](CO)N(CC(C)C)S(=O)(=O)c2ccc(N)cc2)cc1O [EX 37] | 9.65 | > 8.42 | 9.17 | 7.22
CC(C)CN([C@H](CO)CCCCNC(=O)[C@H](Cc1ccc2ccccc2c1)NS(=O)(=O)c1ccc(C#N)cc1)S(=O)(=O)c1ccc(N)cc1 [EX 53] |  | 7.43 |  | 
